Source: patent EP4603105A1, “PHARMACEUTICAL COMPOSITION CONTAINING CYCLIC COMPOUND HAVING SELECTIVE KRAS INHIBITORY EFFECT AGAINST HRAS AND NRAS” (CHUGAI SEIYAKU KABUSHIKI KAISHA, priority 2022, dated 2024)

Assays:
[1] = target: GDP-bound KRAS wild-type protein (Homo sapiens, UniProt P01116); experiment: Binding to KRAS by surface plasmon resonance (SPR), dissociation constant KD; settings: Single Cycle Kinetics, 1:1 binding model
How it was run: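 Measured at 30°C: SPR with GDP-loaded, E. coli-expressed biotin-Avi RAS captured (~100–300 RU), ascending 75 s compound injections, HBS pH 7.4 with GDP, MgCl2, 4% DMSO. KD from 1:1 fit.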

[2] = system: human lung cancer strain NCI-H441; type: cell-based
How it was run: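 Proliferation was scored by […] measured after the reagent was added to cultures kept at 37°C in 5% carbon dioxide.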

[3] = target: HRAS wild-type protein (Homo sapiens, UniProt P01112); experiment: Binding to HRAS by surface plasmon resonance (SPR), KD and KD ratio to KRAS; settings: ratio of the KD value with respect to HRAS wild-type protein to the KD value with respect to KRAS
How it was run: (§1)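 SPR, 30°C: Avi-biotin RAS·GDP captured via Biotin CAPture (~100–300 RU); running buffer HBS pH 7.4, 1 mM DTT, 10 mM MgCl2, 0.01% Tween 20, 10 µM GDP, 4% DMSO. Single-cycle kinetics, 100 µL/min, 75 s injections; 1:1 model → KD.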

[4] = target: GDP-bound NRAS wild-type protein (Homo sapiens, UniProt P01111); experiment: Binding to NRAS by surface plasmon resonance (SPR), KD and KD ratio to KRAS; settings: ratio of the KD value with respect to GDP-bound NRAS wild-type protein to the KD value with respect to KRAS
How it was run: as §1

Sequence of GDP-bound KRAS wild-type protein (P01116 1-188 isoform P01116-2): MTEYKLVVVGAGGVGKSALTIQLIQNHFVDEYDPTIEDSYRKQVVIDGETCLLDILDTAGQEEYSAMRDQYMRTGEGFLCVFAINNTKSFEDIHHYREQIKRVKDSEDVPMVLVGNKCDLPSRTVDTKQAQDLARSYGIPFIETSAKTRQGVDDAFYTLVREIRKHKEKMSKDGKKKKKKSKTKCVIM
Sequence of GDP-bound NRAS wild-type protein (P01111 whole entry): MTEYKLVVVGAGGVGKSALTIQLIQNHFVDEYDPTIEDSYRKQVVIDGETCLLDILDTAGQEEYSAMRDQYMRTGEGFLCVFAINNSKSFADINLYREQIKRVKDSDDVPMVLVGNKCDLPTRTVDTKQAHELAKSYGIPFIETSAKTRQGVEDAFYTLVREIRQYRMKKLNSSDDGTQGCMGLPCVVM
Sequence of HRAS wild-type protein (P01112 whole entry): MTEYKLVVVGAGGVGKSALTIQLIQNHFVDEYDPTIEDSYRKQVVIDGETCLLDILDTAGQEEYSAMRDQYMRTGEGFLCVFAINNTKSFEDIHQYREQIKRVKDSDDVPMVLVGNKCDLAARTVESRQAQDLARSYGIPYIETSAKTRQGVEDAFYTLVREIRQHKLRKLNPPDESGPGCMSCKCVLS

| Kd [1] | IC50 [2] | SMILES | HRAS /KRAS [3] | NRAS /KRAS [4] |
| --- | --- | --- | --- | --- |
| 0.14 nM | 9.1 nM | C#CCN1CC(=O)N(C)[C@H]2C/C=C\CCN(C2=O)[C@@H](Cc2ccc(C)cc2)C(=O)N(C)CC(=O)N[C@@H](CCc2ccc(C(F)(F)F)c(OC)c2)C(=O)N2C[C@H](OCC)C[C@H]2C(=O)NC2(CC(C)(C)C2)C(=O)N(C)[C@@H](C2CCCC2)C(=O)N(C)[C@H](C(=O)N(C)C)CC(=O)N(C)[C@@H](CCC)C(=O)N[C@@H]([C@@H](C)CC)C1=O [PP2099] | A (a compound having 10 or more and less than 20 is denoted as A) | A (a compound having 10 or more and less than 20 is denoted as A) |
| 0.34 nM | 17.6 nM | CCC[C@H]1C(=O)N[C@@H]([C@@H](C)CC)C(=O)N(CCC)CC(=O)N(C)[C@H]2C/C=C\CCN(C2=O)[C@@H](Cc2ccc(C)cc2)C(=O)N(C)CC(=O)N[C@@H](CCc2cc(F)c(C(F)(F)F)c(F)c2)C(=O)N2C[C@H](OCC)C[C@H]2C(=O)NC2(CC(C)(C)C2)C(=O)N(C)[C@@H](C2CCCC2)C(=O)N(C)[C@H](C(=O)N(C)C)CC(=O)N1C [PP2108] | A (a compound having 10 or more and less than 20 is denoted as A) | A (a compound having 10 or more and less than 20 is denoted as A) |
| 0.29 nM | 5.7 nM | CCO[C@@H]1C[C@H]2C(=O)NC3(CC(C)(C)C3)C(=O)N(C)[C@@H](C3CCCC3)C(=O)N(C)[C@H](C(=O)N(C)C)CC(=O)N(C)[C@@H](CC(C)C)C(=O)N[C@@H]([C@@H](C)CC)C(=O)N(C3CC3)CC(=O)N(C)[C@H]3C/C=C\CCN(C3=O)[C@@H](Cc3ccc(C)cc3)C(=O)N(C)CC(=O)N[C@@H](CCc3cc(F)c(C(F)(F)F)c(F)c3)C(=O)N2C1 [PP2109] | A (a compound having 10 or more and less than 20 is denoted as A) | A (a compound having 10 or more and less than 20 is denoted as A) |
| 0.17 nM | 9.4 nM | CCO[C@@H]1C[C@H]2C(=O)NC3(CC(C)(C)C3)C(=O)N(C)[C@@H](C(CC)CC)C(=O)N(C)[C@H](C(=O)N(C)C)CC(=O)N(C)[C@@H](CC(C)C)C(=O)N[C@@H]([C@@H](C)CC)C(=O)N(C)CC(=O)N(C)[C@H]3C/C=C\CCN(C3=O)[C@@H](Cc3ccc(C)cc3)C(=O)N(C)CC(=O)N[C@@H](CCc3cc(F)c(C(F)(F)F)c(F)c3)C(=O)N2C1 [PP2141] | A (a compound having 10 or more and less than 20 is denoted as A) | A (a compound having 10 or more and less than 20 is denoted as A) |
| 0.49 nM | 20 nM | CCO[C@@H]1C[C@H]2C(=O)NC3(CC(C)(C)C3)C(=O)N(C)[C@@H](C(CC)CC)C(=O)N(C)[C@H](C(=O)N(C)C)CC(=O)N(C)[C@@H](C(C)C)C(=O)N[C@@H]([C@@H](C)CC)C(=O)N(C)CC(=O)N(C)[C@H]3C/C=C\CCN(C3=O)[C@@H](Cc3ccc(C)cc3)C(=O)N(C)CC(=O)N[C@@H](CCc3cc(F)c(C(F)(F)F)c(F)c3)C(=O)N2C1 [PP2153] | A (a compound having 10 or more and less than 20 is denoted as A) | A (a compound having 10 or more and less than 20 is denoted as A) |

More lines, now with the values behind:

| SMILES | Kd [1] | IC50 [2] | HRAS /KRAS [3] | NRAS /KRAS [4] |
| --- | --- | --- | --- | --- |
| CCO[C@@H]1C[C@H]2C(=O)NC3(CCC3)C(=O)N(C)[C@@H](C3CCCC3)C(=O)N(C)[C@H](C(=O)N(C)CC)CC(=O)N(C)[C@H]3CCCCCc4ccc(cc4)C[C@@H](C(=O)N(C)CC(=O)N[C@@H](CCc4cc(F)c(C(F)(F)F)c(F)c4)C(=O)N2C1)N1CC/C=C\C[C@@H](C1=O)N(C)C(=O)CN(C)C(=O)[C@H]([C@@H](C)CC)NC3=O [PP2117] | 0.17 nM | 28.9 nM | A (a compound having 10 or more and less than 20 is denoted as A) | A (a compound having 10 or more and less than 20 is denoted as A) |
| CCO[C@@H]1C[C@H]2C(=O)NC3(CC(C)(C)C3)C(=O)N(C)[C@@H](C(CC)CC)C(=O)N(C)[C@H](C(=O)N3CCCC3)CC(=O)N(C)[C@@H](COC)C(=O)N[C@@H]([C@@H](C)CC)C(=O)N(C)CC(=O)N(C)[C@H]3C/C=C\CCN(C3=O)[C@@H](Cc3ccc(C)cc3)C(=O)N(C)CC(=O)N[C@@H](CCc3cc(F)c(C(F)(F)F)c(F)c3)C(=O)N2C1 [PP2139] | 0.38 nM | 38 nM | A (a compound having 10 or more and less than 20 is denoted as A) | AA (a compound having 20 or more is denoted as AA) |
| CCO[C@@H]1C[C@H]2C(=O)NC3(CC(C)(C)C3)C(=O)N(C)[C@@H](C(CC)CC)C(=O)N(C)[C@H](C(=O)N(C)C)CC(=O)N(C)[C@@H](CC3CC3)C(=O)N[C@@H]([C@@H](C)CC)C(=O)N(C)CC(=O)N(C)[C@H]3C/C=C\CCN(C3=O)[C@@H](Cc3ccc(C)cc3)C(=O)N(C)CC(=O)N[C@@H](CCc3ccc(C(F)(F)F)c(Cl)c3)C(=O)N2C1 [PP2142] | 0.3 nM | 10.3 nM | A (a compound having 10 or more and less than 20 is denoted as A) | AA (a compound having 20 or more is denoted as AA) |
| CCO[C@@H]1C[C@H]2C(=O)NC3(CC(C)(C)C3)C(=O)N(C)[C@@H](C(CC)CC)C(=O)N(C)[C@H](C(=O)N(C)C)CC(=O)N(C)[C@@H](CC(C)C)C(=O)N[C@@H]([C@@H](C)CC)C(=O)N(C)CC(=O)N(C)[C@H]3C/C=C\CCN(C3=O)[C@@H](Cc3ccc(C)cc3)C(=O)N(C)CC(=O)N[C@@H](CCc3ccc(C(F)(F)F)c(Cl)c3)C(=O)N2C1 [PP2148] | 0.34 nM | 41.5 nM | A (a compound having 10 or more and less than 20 is denoted as A) | A (a compound having 10 or more and less than 20 is denoted as A) |
| CCO[C@@H]1C[C@H]2C(=O)NC3(CC(C)(C)C3)C(=O)N(C)[C@@H](C(CC)CC)C(=O)N(C)[C@H](C(=O)N(C)C)CC(=O)N(C)[C@@H](C(C)C)C(=O)N[C@@H]([C@@H](C)CC)C(=O)N(C)CC(=O)N(C)[C@H]3C/C=C\CCN(C3=O)[C@@H](Cc3ccc(C)cc3)C(=O)N(C)CC(=O)N[C@@H](CCc3ccc(C(F)(F)F)c(Cl)c3)C(=O)N2C1 [PP2158] | 0.79 nM | 25.4 nM | A (a compound having 10 or more and less than 20 is denoted as A) | AA (a compound having 20 or more is denoted as AA) |
| CCO[C@@H]1C[C@H]2C(=O)NC3(CC(C)(C)C3)C(=O)N(C)[C@@H](C(CC)CC)C(=O)N(C)[C@H](C(=O)N(C)C)CC(=O)N(C)[C@@H](CC)C(=O)N[C@@H]([C@@H](C)CC)C(=O)N(C)CC(=O)N(C)[C@H]3C/C=C\CCN(C3=O)[C@@H](Cc3ccc(C(F)(F)F)cc3)C(=O)N(C)CC(=O)N[C@@H](CCc3ccc(Cl)c(Cl)c3)C(=O)N2C1 [PP2179] | 1.5 nM | 13.5 nM | A (a compound having 10 or more and less than 20 is denoted as A) | AA (a compound having 20 or more is denoted as AA) |
| CCO[C@@H]1C[C@H]2C(=O)NC3(CC(C)(C)C3)C(=O)N(C)[C@@H](C(CC)CC)C(=O)N(C)[C@H](C(=O)N(C)C)CC(=O)N(C)[C@@H](CC3CC3)C(=O)N[C@@H]([C@@H](C)CC)C(=O)N(C)CC(=O)N(C)[C@H]3C/C=C\CCN(C3=O)[C@@H](Cc3ccc(C)cc3)C(=O)N(C)CC(=O)N[C@@H](CCc3ccc(Cl)c(Cl)c3)C(=O)N2C1 [PP2182] | 0.72 nM | 19.5 nM | A (a compound having 10 or more and less than 20 is denoted as A) | AA (a compound having 20 or more is denoted as AA) |
